Patent publication US20060258000A1, “Use of steady-state oxygen gradients to modulate animal cell functions” (priority 2003, published 2006)

What was measured:
CYP2B [1] = assay: Zonal induction of CYP2B in hepatocyte bioreactor under oxygen gradient, Western blot
Description: Bioreactor cultures were perfused with media and allowed to reach steady state before the addition of inductive agents of glucagon for PEPCK up-regulation or phenobarbitol (PB) and EGF for CYP2B1 induction. […] Media with 0.75 mM PB and 0.16 nM EGF was perfused for 36 h to induced CYB2B expression before cell lysis. Cell lysates were collected at the end of each experiment for electrophoretic analysis.
Primary rat hepatocytes from 6-well plates or chamber slides were lysed and scraped in SDS buffered (10 mM Tris/HCl (ph 7.4), 0.1% SDS). Samples were added to microcentrifuge tubes with 5 μl of PMSF, homogenized with a pestle, and centrifuged at 16,200 g for 5 minutes. Total protein content in the supernatant was determined using the DC protein assay (Bio-Rad, Hercules, Calif.) and used to normalize sample loading. Samples prepared in sample buffer were loaded (10-20 μg/well) for electrophoresis on a 10% polyacrylamide gel.

CYP3A = CYP3A protein induction in static and perfused co-cultures, Western blot
CYP2B [2] = assay: CYP2B protein induction in static and perfused co-cultures, Western blot
Description: (§1) Primary rat hepatocytes from 6-well plates or chamber slides were lysed and scraped in SDS buffered (10 mM Tris/HCl (ph 7.4), 0.1% SDS). Samples were added to microcentrifuge tubes with 5 μl of PMSF, homogenized with a pestle, and centrifuged at 16,200 g for 5 minutes. Total protein content in the supernatant was determined using the DC protein assay (Bio-Rad, Hercules, Calif.) and used to normalize sample loading. Samples prepared in sample buffer were loaded (10-20 μg/well) for electrophoresis on a 10% polyacrylamide gel. After overnight transfer on to a PVDF membrane, blots were incubated with a blocking buffered (20 mM Tris-Cl (pH 7.4), 500 mM NaCl, 0.1% Tween 20, and 5% (w/v) milk powder) and washed with buffer without milk powder, incubation for 1 h with primary antibody against rat PEPCK or rat CYP2B (Genset, Woburn, Mass.) was followed by washing and incubation with either anti-sheep (PEPCK) or anti-goat (CYP2B) HRP-conjugated secondary antibody for 45 minutes. After washing, the Pierce SuperSignal chemiluminescence reagent was used for detection. All electrophoresis gels were run with molecular mass markers to verify PEPCK bands (67 kDa) or CYP2B1/2 bands (56 kDa). Optical density measurements were obtained using scanned blot images with 1d gelscan software (Metamorph).

CYP2B [3] = test system: CYP2B
Description: as §1

PEPCK = assay: Zonal induction of PEPCK in hepatocyte bioreactor under oxygen gradient, Western blot; format: cell-based, rat
Description: Hepatocyte Isolation And Culture.
Bioreactor And Flow Circuit.

[4] = cultures perfused with 200 μM PB, 36 hours
[5] = static cultures induced with PB

Compound: CCC1(c2ccccc2)C(=O)NC(=O)NC1=O [PB, phenobarbital]
- CYP2B induction along the chamber (CYP2B [1]; 0.75 mM PB with 0.16 nM EGF, 36 h, inlet pO2 76 mmHg, 0.5 mL/min (physiologic gradient)): increasing CYP2B induction along the length of the chamber
- CYP2B levels from inlet to outlet (CYP2B [1]; PB with EGF, supraphysiologic oxygen gradient, same flow rate): did not result in significant differences in CYP2B levels from inlet to outlet
- CYP3A expression over controls (CYP3A; [4]): Dramatic expression of both CYPs over controls
- CYP3A spatial distribution along bioreactor (CYP3A; [4]): increasing expression from inlet to outlet
- CYP3A expression (CYP3A; [5]): low CYP3A
- CYP2B expression over controls (CYP2B [2]; [4]): Dramatic expression of both CYPs over controls
- CYP2B spatial distribution along bioreactor (CYP2B [2]; [4]): levels were highest in the lower-oxygen outlet regions
- CYP2B expression (CYP2B [2]; [5]): moderate CYP2B expression

Compound: C[C@@H]1C[C@H]2[C@@H]3CCC4=CC(=O)C=C[C@]4(C)[C@@]3(F)[C@@H](O)C[C@]2(C)[C@@]1(O)C(=O)CO [DEX, dexamethasone]
- CYP2B induction and localization (CYP2B [3]): high levels which were localized to inlet regions

Compound: glucagon
- PEPCK protein levels in 4 bioreactor regions (PEPCK; 10 nM glucagon 8 h, inlet pO2 76 mmHg, 0.5 mL/min (physiologic gradient)): maximal PEPCK protein levels at the inlet decreasing to half maximal at the outlet
- PEPCK induction distribution (PEPCK; 10 nM glucagon, inlet pO2 158 mmHg, 0.5 ml/min (supraphysiologic gradient)): heterogenous induction of PEPCK was abrogated
